From patent publication US7320979B2, “N-[(piperazinyl)hetaryl]arylsulfonamide compounds” (Abbott GmbH & Co. KG., priority 2003, dated 2008)
pKi: −log10 of the molar value. Counter-ions that a name gives are not always drawn.

Experiments:
[1] = target: T1, human dopamine D2L receptors (long isoform) (Homo sapiens, UniProt P14416); assay: Dopamine D2L receptor binding, displacement of [125I] iodospiperone; settings: footnote: ratio of the Ki values of the D3 and D2L binding tests
T1 construct: expressed in transfected cells; host or cells: HEK-293
Procedure: (§1) The substance to be tested was either dissolved in methanol/Chremophor® (BASF-AG) or in dimethyl sulfoxide and then diluted with water to the desired concentration.
(§2) Each assay mixture was run in triplicate.
The incubation buffer contained 50 mM tris, 120 mM NaCl, 5 mM KCl, 2 mM CaCl2, 2 mM MgCl2 and 0.1% bovine serum albumin. The buffer was adjusted to pH 7.4 with HCl.
(§3) After having been incubated at 25° C. for 60 minutes, the assay mixtures were filtered through a Whatman GF/B glass fiber filter under vacuum using a cell collecting device. The filters were transferred to scintillation viols using a filter transfer system. After 4 ml of Ultima Gold® (Packard) have been added, the samples were shaken for one hour and the radioactivity was then counted in a Beta-Counter (Packard, Tricarb 2000 or 2200CA). The cpm values were converted into dpm using a standard quench series and the program belonging to the instrument.
(§4) The inhibition curves were analyzed by means of iterative nonlinear regression analysis using the Statistical Analysis System (SAS) which is similar to the “LIGAND” program described by Munson and Rodbard.

[2] = target: T2, human dopamine D3 receptors (Homo sapiens, UniProt P35462); assay: Dopamine D3 receptor binding, displacement of [125I]-iodosulpride; settings: membranes of HEK-293 cells stably expressing human D3 receptors; 0.1 nM [125I]-iodosulpride; 25° C., 60 minutes
T2 construct: expressed in transfected cells; host or cells: HEK-293
Procedure: as §1, §2
The incubation buffer contained 50 mM tris, 120 mM NaCl, 5 mM KCl, 2 mM CaCl2, 2 mM MgCl2 and 0.1% bovine serum albumin, 10 μM […] and 0.1% ascorbic acid (prepared fresh daily). The buffer was adjusted to pH 7.4 with HCl.
as §3, §4

T2 sequence (P35462 whole entry): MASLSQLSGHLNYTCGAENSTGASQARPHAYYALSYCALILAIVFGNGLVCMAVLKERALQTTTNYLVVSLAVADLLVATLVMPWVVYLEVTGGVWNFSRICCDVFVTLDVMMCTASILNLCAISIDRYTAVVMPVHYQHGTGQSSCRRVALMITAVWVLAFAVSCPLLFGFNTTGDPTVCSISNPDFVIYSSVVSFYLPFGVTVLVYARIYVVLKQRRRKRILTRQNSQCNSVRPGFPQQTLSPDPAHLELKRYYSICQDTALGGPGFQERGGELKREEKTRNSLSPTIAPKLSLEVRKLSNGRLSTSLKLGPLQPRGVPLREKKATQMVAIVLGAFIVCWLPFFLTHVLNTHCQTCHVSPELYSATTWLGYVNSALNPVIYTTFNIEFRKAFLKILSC
T1 sequence (P14416 whole entry, canonical isoform): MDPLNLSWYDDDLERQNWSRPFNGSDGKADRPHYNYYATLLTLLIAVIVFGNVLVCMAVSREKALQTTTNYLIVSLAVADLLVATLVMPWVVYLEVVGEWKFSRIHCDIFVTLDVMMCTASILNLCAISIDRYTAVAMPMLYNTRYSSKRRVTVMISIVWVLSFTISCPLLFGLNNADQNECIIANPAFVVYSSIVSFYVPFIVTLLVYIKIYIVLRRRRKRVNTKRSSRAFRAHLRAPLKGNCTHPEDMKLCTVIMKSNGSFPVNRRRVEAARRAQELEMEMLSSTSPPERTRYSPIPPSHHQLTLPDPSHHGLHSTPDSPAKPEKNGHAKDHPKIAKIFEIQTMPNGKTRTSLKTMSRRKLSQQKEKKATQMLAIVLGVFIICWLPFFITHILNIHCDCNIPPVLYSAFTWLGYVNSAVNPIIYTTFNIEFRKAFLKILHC

| Structure (SMILES) | Selectivity vs. D2L [1] | pKi [2] |
| --- | --- | --- |
| CCCN1C(C)CN(c2ncccc2NS(=O)(=O)c2ccc(C(C)C)cc2)CC1C.O=C(O)C(F)(F)F (stereo not drawn) [Example 22, 4-Isopropyl-N-[2-(3,5-dimethyl-4-propylpiperazin-1-yl)pyridin-3-yl]benzenesulfonamide trifluoroacetate] | 22 | 7.66 |
| C=CCN1C(C)CN(c2ccc(NS(=O)(=O)c3ccc(C(C)C)cc3)cn2)CC1C.Cl (stereo not drawn) [Example 24, N-[6-(4-Allyl-3,5-dimethylpiperazin-1-yl)pyridin-3-yl]-4-isopropylbenzenesulfonamide hydrochloride] | 47 | 7.60 |
| CCCN1CC2CC1CN2c1ccc(NS(=O)(=O)c2ccc(C(C)C)cc2)cn1.Cl (stereo not drawn) [Example 29, 4-Isopropyl-N-[6-(5-propyl-2,5-diazabicyclo[2.2.1]hept-2-yl)pyridin-3-yl]-benzenesulfonamide hydrochloride] | 31 | 7.77 |
| C=CCN1CC2CC1CN2c1ccc(NS(=O)(=O)c2ccc(C(C)C)cc2)cn1.Cl (stereo not drawn) [Example 30, N-[6-(5-Allyl-2,5-diazabicyclo[2.2.1]hept-2-yl)pyridin-3-yl]-4-isopropylbenzenesulfonamide hydrochloride] | 17 | 7.95 |
| C=Cc1ccc(S(=O)(=O)Nc2ccc(N3CCN(CCC)CC3)nc2)cc1.Cl [Example 31, N-[6-(4-Propylpiperazin-1-yl)pyridin-3-yl]-4-vinylbenzenesulfonamide hydrochloride] | 96 | 7.85 |
| CCCN1CCN(c2ccc(NS(=O)(=O)c3ccc(CC)cc3)cn2)CC1.Cl [Example 34, 4-Ethyl-N-[6-(4-propylpiperazin-1-yl)pyridin-3-yl]-benzenesulfonamide hydrochloride] | 73 | 8.02 |
| C=CCN1CCN(c2cc(C)c(NS(=O)(=O)c3ccc(C(C)C)cc3)cn2)CC1.Cl [Example 37, N-[6-(4-Allylpiperazin-1-yl)-4-methylpyridin-3-yl]-4-isopropylbenzenesulfonamide hydrochloride] | 86 | 8.57 |
| CCCN1CCN(c2cc(C)c(NS(=O)(=O)c3ccc(C(C)C)cc3)cn2)CC1.Cl [Example 38, 4-Isopropyl-N-[4-methyl-6-(4-propylpiperazin-1-yl)pyridin-3-yl]-benzenesulfonamide hydrochloride] | 22 | 7.76 |
| C=Cc1ccc(S(=O)(=O)Nc2cnc(N3CCN(CCC)CC3)cc2C)cc1.Cl [Example 39, N-[4-Methyl-6-(4-propylpiperazin-1-yl)pyridin-3-yl]-4-vinylbenzenesulfonamide hydrochloride] | 30 | 7.46 |
| C=CCN1CCN(c2ccc(NS(=O)(=O)c3ccc(C(C)(C)C)cc3)c(C)n2)CC1 [Example 44, 4-tert-Butyl-[N-[2-(4-allylpiperazin-1-yl)-6-methylpyridin-5-yl]-benzenesulfonamide, fumarate] | 41 | 8.85 |
| CCCN1CCN(c2ccc(NS(=O)(=O)c3ccc(CC)cc3)cn2)C[C@@H]1C.Cl [Example 46, 4-Ethyl-N-[6-((S)-3-methyl-4-propyl-piperazin-1-yl)-pyridin-3-yl]-benzenesulfonamide, hydrochloride] | 50 | 8.15 |
| C=Cc1ccc(S(=O)(=O)Nc2ccc(N3CCN(CCC)[C@@H](C)C3)nc2)cc1.Cl [Example 47, N-[6-((S)-3-methyl-4-propyl-piperazin-1-yl)-pyridin-3-yl]-4-vinylbenzenesulfonamide, hydrochloride] | 118 | 8.21 |
| CCCN1CCN(c2ccc(NS(=O)(=O)c3ccc(C(C)C)cc3)c(OC)n2)C[C@@H]1C.Cl [Example 49, 4-Isopropyl-N-[2-methoxy-6-((S)-3-methyl-4-propyl-piperazin-1-yl)-pyridin-3-yl]-benzenesulfonamide, hydrochloride] | 19 | 9.40 |
| CC(C)c1ccc(S(=O)(=O)Nc2cnc(N3CCNCC3)nc2)cc1 [Example 52, 4-Isopropyl-N-(2-piperazin-1-yl-pyrimidin-5-yl)-benzenesulfonamide] | 63 | 7.85 |
| CCN1CCN(c2ncc(NS(=O)(=O)c3ccc(C(C)C)cc3)cn2)CC1.Cl [Example 53, N-[2-(4-Ethyl-piperazin-1-yl)-pyrimidin-5-yl]-4-isopropylbenzenesulfonamide, hydrochloride] | 149 | 8.06 |
| CCN1CCN(c2ncc(NS(=O)(=O)c3ccc(C(C)C)cc3)cn2)C[C@@H]1C.Cl [Example 54, N-[2-((S)-4-Ethyl-3-methyl-piperazin-1-yl)-pyrimidin-5-yl]-4-isopropylbenzenesulfonamide, hydrochloride] | 84 | 8.64 |
| CCCN1CCN(c2ncc(NS(=O)(=O)c3ccc(C(C)C)cc3)cn2)C[C@@H]1C.Cl [Example 56, 4-Isopropyl-N-[2-((S)-3-methyl-4-propyl-piperazin-1-yl)-pyrimidin-5-yl]-benzenesulfonamide, hydrochloride] | 399 | 8.80 |

Further molecules by rising pKi [2], results first:

| Selectivity vs. D2L [1] | pKi [2] | Structure (SMILES) |
| --- | --- | --- |
| 51 | 7.58 | C=CCN1CCN(c2ccc(NS(=O)(=O)c3ccc(Cl)cc3)cn2)CC1.Cl [Example 35, N-[6-(4-Allylpiperazin-1-yl)pyridin-3-yl]-4-chlorobenzenesulfonamide hydrochloride] |
| 67 | 7.60 | CCCN1CCN(c2ccc(NS(=O)(=O)c3ccc(Cl)cc3)cn2)CC1 [Example 28, 4-Chloro-N-[6-(4-propylpiperazin-1yl)pyridin-3-yl]-benzenesulfonamide] |
| 55 | 7.67 | CCCN1CCN(c2ccc(NS(=O)(=O)c3ccc(Br)cc3)cn2)CC1 [Example 27, 4-Bromo-N-[6-(4-propylpiperazin-1-yl)pyridin-3-yl]-benzenesulfonamide] |
| 74 | 7.77 | CC(C)c1ccc(S(=O)(=O)Nc2ccc(N3CCN(CCCF)CC3)nc2)cc1.Cl [Example 32, N-{6-[4-(3-Fluoropropyl)piperazin-1-yl]pyridin-3-yl}-4-isopropylbenzenesulfonamide hydrochloride] |
| 57 | 8.00 | C=CCN1CCN(c2ccc(NS(=O)(=O)c3ccc(C(C)C)cc3)cn2)C[C@@H]1CC.Cl [Example 50, N-[6-((S)-4-Allyl-3-ethyl-piperazin-1-yl)-pyridin-3-yl]-4-isopropylbenzenesulfonamide, hydrochloride] |
| 234 | 8.14 | CCCN1CCN(c2ncc(NS(=O)(=O)c3ccc(CC)cc3)cn2)C[C@@H]1C.Cl [Example 57, 4-Ethyl-N-[2-((S)-3-methyl-4-propyl-piperazin-1-yl)-pyrimidin-5-yl]-benzenesulfonamide, hydrochloride] |
| 254 | 8.21 | C=Cc1ccc(S(=O)(=O)Nc2cnc(N3CCN(CCC)[C@@H](C)C3)nc2)cc1.Cl [Example 58, N-[2-((S)-3-Methyl-4-propyl-piperazin-1-yl)-pyrimidin-5-yl]-4-vinylbenzenesulfonamide, hydrochloride] |
| 50 | 8.27 | Cc1cc(N2CCNCC2)ncc1NS(=O)(=O)c1ccc(C(C)C)cc1.Cl [Example 36, 4-Isopropyl-N-(4-methyl-6-piperazin-1-ylpyridin-3-yl)-benzenesulfonamide hydrochloride] |
| 101 | 8.51 | CCCN1CCN(c2ccc(NS(=O)(=O)c3ccc(C(C)C)cc3)cn2)C[C@@H]1CC.Cl [Example 51, N-[6-((S)-3-Ethyl-4-propyl-piperazin-1-yl)-pyridin-3-yl]-4-isopropylbenzenesulfonamide, hydrochloride] |
| 159 | 8.54 | C=CCN1CCN(c2ncc(NS(=O)(=O)c3ccc(C(C)C)cc3)cn2)C[C@@H]1C.Cl [Example 55, N-[2-((S)-4-Allyl-3-methyl-piperazin-1-yl)-pyrimidin-5-yl]-4-isopropyl-benzenesulfonamide, hydrochloride] |
| 24 | 8.85 | C=CCN1CCN(c2ccc(NS(=O)(=O)c3ccc(C(C)(C)CC)cc3)c(C)n2)CC1 [Example 45, 4-tert-pentyl-[N-[2-(4-Allylpiperazin-1-yl)-6-methylpyridin-5-yl]-benzenesulfonamide, Fumarate] |
| 80 | 8.96 | C=CCN1CCN(c2ccc(NS(=O)(=O)c3ccc(C(C)C)cc3)c(C)n2)CC1 [Example 43] |
| 21 | 9.10 | C=CCN1CCN(c2ccc(NS(=O)(=O)c3ccc(C(C)C)cc3)c(OC)n2)C[C@@H]1C.Cl [Example 48, N-[6-((S)-4-Allyl-3-methyl-piperazin-1-yl)-2-methoxy-pyridin-3-yl]-4-isopropylbenzenesulfonamide, hydrochloride] |
